Columns and labels:
human BuChE = target: T1, human BuChE (Homo sapiens, UniProt P06276); assay: Inhibition constants (Dixon and Cornish–Bowden plots), BuChE; assay type: biochemical
T1 construct: butyrylcholiesterase from human plasma; purchased Sigma-Aldrich; host or cells: human plasma
Experimental: Experiments were performed using four different concentrations of ATCh as a substrate for AChE, and with BuTCh as a substrate for BuChE. According to the analysis of Dixon and Cornish–Bowden plots for bisuracil 2b, AChE and BuChE inhibition is of a mixed type characterised both by competitive inhibition (Kci) and uncompetitive inhibition (Kui) components. For AChE, Kci was determined to be 55.7 ± 8.1 pM while Kui = 156 ± 18 pM (Figure 3A,B), and Kci = 0.13 ± 0.02 mM while Kui = 0.7 ± 0.06 mM for BuChE (Figure 3C,D). Inhibition of AChE and BuChE by bisuracil 3c was of a mixed type. For the AChE constant, Kci was 0.7 ± 0.04 nM while Kui 4.45 ± 1.76 nM (Figure 4A,B); for the BuChE constant, Kci = 0.04 ± 0.007 мM while Kui = 0.68 ± 0.08 мM (Figure 4C,D).
A UV-1800 Shimadzu (Shimadzu Co., Kyoto, Japan) spectrophotometer was utilised to conduct the measurements. The final enzyme concentration in the assays was in the picomolar range. In order to ascertain the levels of spontaneous hydrolysis of the enzyme and substrate in the absence of an inhibitor, controls were performed for each substrate concentration. The change in absorption was then recorded over a period of three minutes. The inhibition constants were determined from a Dixon plot and Cornish–Bowden transformation.

brain AChE = target: T2, brain AChE (Mus musculus, UniProt P21836); assay: Brain AChE inhibition in vivo; parameters: species or system mice; details: ip
T2 construct: Whole-brain homogenates were prepared in a Potter homogeniser; from tissue; host or cells: whole brain of CD-1 mice
T2 sequence (P21836 32-614): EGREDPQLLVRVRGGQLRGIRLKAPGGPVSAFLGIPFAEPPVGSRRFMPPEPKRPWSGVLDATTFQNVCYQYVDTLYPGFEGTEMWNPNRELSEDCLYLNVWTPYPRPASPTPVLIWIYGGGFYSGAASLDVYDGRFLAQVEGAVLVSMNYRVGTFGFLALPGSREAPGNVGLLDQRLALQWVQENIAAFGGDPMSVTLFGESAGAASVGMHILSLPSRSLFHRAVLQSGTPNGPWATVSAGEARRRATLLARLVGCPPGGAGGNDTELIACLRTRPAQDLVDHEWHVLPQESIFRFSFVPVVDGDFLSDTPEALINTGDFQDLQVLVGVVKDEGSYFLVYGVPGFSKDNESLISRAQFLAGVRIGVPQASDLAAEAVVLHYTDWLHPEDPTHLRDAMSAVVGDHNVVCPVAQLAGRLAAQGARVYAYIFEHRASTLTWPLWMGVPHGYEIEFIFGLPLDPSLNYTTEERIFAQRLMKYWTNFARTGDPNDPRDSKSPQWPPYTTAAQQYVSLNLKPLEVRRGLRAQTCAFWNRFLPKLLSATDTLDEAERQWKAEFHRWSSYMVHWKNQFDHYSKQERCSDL
Experimental: Bisuracil 3c was identified as the most promising for the inhibition of brain AChE in vivo. […].
For the brain AChE inhibition assay, the brains of mice were removed 30 min after i.p. injection of the tested compound (experimental group, n = 6 mice) or following i.p. vehicle injection (control group, n = 6 mice). The brains were subsequently frozen in liquid nitrogen. Whole-brain homogenates were prepared in a Potter homogeniser with 0.05 M Tris–HCl, 1% Triton X–100, 1M NaCl, and 2 mM ethylenediaminetetraacetic acid (pH 7.0; 4 °C; 1 part brain to 2 parts of buffer). The homogenate was centrifuged (14,000× g rpm; t = 4 °C) for 10 min using an Eppendorf 5430R centrifuge with an FA–45–30–11 rotor (Eppendorf AG, Hamburg, Germany). AChE activity in brain homogenates was measured using the method described by Dingova et al. with modification. […] The production of yellow 5–thio–2–nitro–benzoate anion resulting from the reduction of DTNB by thiocholine (the product of enzymatic hydrolysis of ATCH) was measured spectrophotometrically using a Shimadzu UV-1800 spectrophotometer (Shimadzu Co., Kyoto, Japan) according to Ellman’s method. The rate of thiocholine production over 20 min (from 10 to 30 min) was calculated. […] AChE activity was expressed in relation to the amount of total protein, which was determined by the Bradford method.

mice = assay: Open-field test; assay type: in vivo; details: 2b 0.01 mg/kg, 3c 5 mg/kg, i.p.
Experimental: The ability of effective doses of bisuracil 2b (0.01 mg/kg) and bisuracil 3c (5 mg/kg) to induce incapacitation was evaluated. Locomotor activity, measured as the total distance travelled, and exploratory behaviour, assessed by the number of rearings (head inclinations) and head dips, were evaluated using the open-field test. Additionally, motor coordination was analysed using the rotarod test, where the ability of mice to stay on the rotating rod was recorded. The compounds were administered i.p. 30 min before testing, while the control group received an equivalent volume of the vehicle.
To analyse motor function, rotarod and open-field tests were carried out. Mice were randomly divided into 3 groups (n = 12): a control group of mice and groups of mice treated with tested compounds. Tests were conducted 1 h after compound exposure. To assess motor function, mice were first placed on a rotarod treadmill (Ugo Basile, Italy). Rotation speed was fixed at 15 rpm, and the time that each mouse remained on the rod was recorded as the score, with a maximum duration of 300 s per trial. Each mouse underwent 3 trials. After recording the length of time that mice managed to remain on the rotarod (latency to fall), the average of three trials was used for further analysis. Following the rotarod test, motor function was studied in an open field apparatus (Open Science, Krasnogorsk, Russia), as described in [39]. The numbers of rearing and head dips were estimated as indexes of exploratory activity. To assess motor function, the distance travelled in centimetres in the arena was measured, using VideoMot2 software (Version 8.02 (131) 03-07-17 (TSE Systems, Bad Homburg, Germany).

T1 sequence (P06276 29-602): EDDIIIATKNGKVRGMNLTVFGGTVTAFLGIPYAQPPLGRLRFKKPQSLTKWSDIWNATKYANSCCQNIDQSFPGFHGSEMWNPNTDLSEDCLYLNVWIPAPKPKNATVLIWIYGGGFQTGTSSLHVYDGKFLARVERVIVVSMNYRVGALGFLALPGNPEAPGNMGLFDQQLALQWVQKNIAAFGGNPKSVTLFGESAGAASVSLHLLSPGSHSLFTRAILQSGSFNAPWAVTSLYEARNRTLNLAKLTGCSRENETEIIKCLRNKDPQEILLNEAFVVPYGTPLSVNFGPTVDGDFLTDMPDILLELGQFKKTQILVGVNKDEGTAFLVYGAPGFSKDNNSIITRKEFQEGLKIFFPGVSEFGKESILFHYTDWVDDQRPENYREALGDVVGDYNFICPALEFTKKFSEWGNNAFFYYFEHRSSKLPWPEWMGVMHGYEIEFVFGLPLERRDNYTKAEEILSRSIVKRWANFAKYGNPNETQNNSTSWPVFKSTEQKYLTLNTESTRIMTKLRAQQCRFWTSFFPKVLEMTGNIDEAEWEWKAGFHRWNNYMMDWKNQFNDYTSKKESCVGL

## CCN(CCCCCn1c(=O)ccn(CCCCCn2c(C)cc(=O)n(C)c2=O)c1=O)Cc1ccccc1C#N [3c]
Human BuChE; BuTCh as substrate
  Kui (uncompetitive inhibition constant), BuChE: 0.68 ± 0.08 мM
Human BuChE; BuTCh as substrate, read-out: Kci (competitive inhibition constant), BuChE
  Ki: 40 ± 7 µM
Human BuChE; Dixon and Cornish–Bowden plots
  type of BuChE inhibition: mixed type
Brain AChE
  inhibition at 5 mg/kg: 14.9 ± 3.8%
  inhibition at 10 mg/kg: 54.2 ± 6.6%
mice
  distance travelled (open field) vs control group: no significant differences
  number of rearings or head dips (open field): neither of the tested compounds significantly influenced

— publication PMC12027946, “Ionic and Non-Ionic Counterparts Based on Bis(Uracilyl)Alkane Moiety with Highest Selectivity Towards Acetylcholinesterase for Protection Against Organophosphate Poisoning and Treating Alzheimer’s Disease” (International Journal of Molecular Sciences, 2025)
